Laboratory results as given in the NIST ThermoML archive (doi:10.1021/je800463k).
± gives the expanded uncertainty stated by the source.

Experiment: mn = molality of the nth substance listed, in mol/kg
Conditions: 101 kPa, Liquid; for speed of sound: Frequency=2 MHz; for mass density: Pycnometric method; for electrical conductivity: Frequency=0.001 MHz, Alternating current cell with electrodes

Molecule `CC(=O)[O-].CC(=O)[O-].[Mg+2]` [magnesium acetate] + CO has a speed of sound (308.15 K, m1 = 0.0855) of 1073.8 ± 6.3 m/s, a speed of sound (308.15 K, m1 = 0.1024) of 1077.1 ± 6.3 m/s and a speed of sound (308.15 K, m1 = 0.1402) of 1078.5 ± 6.3 m/s. For the same molecule, the speed of sound (308.15 K, m1 = 0.1455) was 1075.3 ± 6.3 m/s, the speed of sound (308.15 K, m1 = 0.1837) was 1078.1 ± 6.3 m/s and the speed of sound (308.15 K, m1 = 0.2192) was 1081.5 ± 6.4 m/s. For the same molecule, the speed of sound (308.15 K, m1 = 0.2422) was 1081.2 ± 6.4 m/s, the speed of sound (308.15 K, m1 = 0.2889) was 1082 ± 6.4 m/s and the speed of sound (308.15 K, m1 = 0.3042) was 1083.6 ± 6.4 m/s. For the same molecule, the viscosity (308.15 K, m1 = 0.014) was 0.4859 ± 0.014 mPa·s, the viscosity (308.15 K, m1 = 0.018) was 0.4878 ± 0.014 mPa·s and the viscosity (308.15 K, m1 = 0.0339) was 0.496 ± 0.014 mPa·s. It also gave a viscosity (308.15 K, m1 = 0.0646) of 0.5027 ± 0.014 mPa·s, a viscosity (308.15 K, m1 = 0.1012) of 0.5234 ± 0.015 mPa·s and a viscosity (308.15 K, m1 = 0.13) of 0.532 ± 0.015 mPa·s. For the same molecule, the viscosity (308.15 K, m1 = 0.1402) was 0.5368 ± 0.015 mPa·s, the viscosity (308.15 K, m1 = 0.17) was 0.5518 ± 0.015 mPa·s and the viscosity (308.15 K, m1 = 0.2003) was 0.5625 ± 0.015 mPa·s. The viscosity (308.15 K, m1 = 0.2422) was 0.5782 ± 0.016 mPa·s, the viscosity (308.15 K, m1 = 0.2453) was 0.578 ± 0.016 mPa·s and the viscosity (308.15 K, m1 = 0.2889) was 0.5942 ± 0.016 mPa·s. The mass density (308.2 K, m1 = 0.0093) was 779.23 ± 0.92 kg/m3, the mass density (308.7 K, m1 = 0.1112) was 786.87 ± 4 kg/m3 and the mass density (308.9 K, m1 = 0.053) was 781.63 ± 1.7 kg/m3. It also gave a mass density (308.9 K, m1 = 0.1798) of 791.35 ± 3.8 kg/m3, a mass density (308.9 K, m1 = 0.2003) of 791.74 ± 1.9 kg/m3 and a mass density (308.9 K, m1 = 0.2668) of 795.13 ± 5.8 kg/m3. It also gave a mass density (308.95 K, m1 = 0.0855) of 783.63 ± 3 kg/m3, a mass density (309.1 K, m1 = 0.0059) of 777.74 ± 0.75 kg/m3 and a mass density (309.1 K, m1 = 0.1455) of 788.87 ± 4 kg/m3. The mass density (309.45 K, m1 = 0.2192) was 791.87 ± 7.4 kg/m3, the mass density (309.5 K, m1 = 0.3042) was 796.38 ± 5.7 kg/m3 and the mass density (309.75 K, m1 = 0.0646) was 782.66 ± 1.9 kg/m3. It also gave a mass density (309.95 K, m1 = 0.2422) of 793.32 ± 4.9 kg/m3, a mass density (310.25 K, m1 = 0.014) of 778.28 ± 0.86 kg/m3 and a mass density (310.25 K, m1 = 0.0339) of 779.95 ± 1.3 kg/m3. For the same molecule, the mass density (310.5 K, m1 = 0.1402) was 787 ± 3.7 kg/m3, the mass density (310.65 K, m1 = 0.0093) was 776.87 ± 0.86 kg/m3 and the mass density (311 K, m1 = 0.2668) was 793.11 ± 5.2 kg/m3. For the same molecule, the mass density (311.2 K, m1 = 0.1112) was 784.4 ± 3.9 kg/m3, the mass density (311.2 K, m1 = 0.3042) was 794.7 ± 5.7 kg/m3 and the mass density (311.4 K, m1 = 0.053) was 779.24 ± 1.8 kg/m3. The mass density (311.5 K, m1 = 0.0855) was 781.28 ± 3 kg/m3, the mass density (311.5 K, m1 = 0.1798) was 788.93 ± 3.3 kg/m3 and the mass density (311.55 K, m1 = 0.0059) was 775.36 ± 0.52 kg/m3. For the same molecule, the mass density (311.6 K, m1 = 0.1455) was 786.44 ± 4.2 kg/m3, the mass density (311.9 K, m1 = 0.2192) was 789.45 ± 2.4 kg/m3 and the mass density (312.1 K, m1 = 0.1402) was 785.37 ± 4.2 kg/m3. The mass density (312.15 K, m1 = 0.0646) was 780.21 ± 2 kg/m3, the mass density (312.3 K, m1 = 0.0093) was 775.23 ± 0.88 kg/m3 and the mass density (312.35 K, m1 = 0.2003) was 788.52 ± 4.2 kg/m3. For the same molecule, the mass density (312.45 K, m1 = 0.2422) was 790.83 ± 8.1 kg/m3, the mass density (312.7 K, m1 = 0.0339) was 777.5 ± 1 kg/m3 and the mass density (312.75 K, m1 = 0.014) was 775.84 ± 0.97 kg/m3. The mass density (312.9 K, m1 = 0.053) was 777.6 ± 1.4 kg/m3, the mass density (313.05 K, m1 = 0.0855) was 779.61 ± 2.5 kg/m3 and the mass density (313.1 K, m1 = 0.2668) was 791.07 ± 4.7 kg/m3. For the same molecule, the electrical conductivity (313.15 K, m1 = 0.0059) was 0.0376 ± 0.0001 S/m, the electrical conductivity (313.15 K, m1 = 0.0093) was 0.0598 ± 0.0001 S/m and the electrical conductivity (313.15 K, m1 = 0.018) was 0.0685 ± 0.0001 S/m. For the same molecule, the electrical conductivity (313.15 K, m1 = 0.0339) was 0.089 ± 0.0001 S/m, the electrical conductivity (313.15 K, m1 = 0.053) was 0.1041 ± 0.0001 S/m and the electrical conductivity (313.15 K, m1 = 0.0646) was 0.1137 ± 0.0001 S/m. The electrical conductivity (313.15 K, m1 = 0.0855) was 0.1243 ± 0.0001 S/m, the electrical conductivity (313.15 K, m1 = 0.1024) was 0.1348 ± 0.0001 S/m and the electrical conductivity (313.15 K, m1 = 0.1402) was 0.1535 ± 0.0001 S/m. The electrical conductivity (313.15 K, m1 = 0.1455) was 0.1577 ± 0.0001 S/m, the electrical conductivity (313.15 K, m1 = 0.1837) was 0.166 ± 0.0001 S/m and the electrical conductivity (313.15 K, m1 = 0.2422) was 0.1817 ± 0.0001 S/m. For the same molecule, the electrical conductivity (313.15 K, m1 = 0.2889) was 0.1868 ± 0.0001 S/m, the speed of sound (313.15 K, m1 = 0.0059) was 1053.9 ± 6.2 m/s and the speed of sound (313.15 K, m1 = 0.0093) was 1054.5 ± 6.2 m/s. The speed of sound (313.15 K, m1 = 0.018) was 1055.7 ± 6.3 m/s, the speed of sound (313.15 K, m1 = 0.053) was 1059.6 ± 6.3 m/s and the speed of sound (313.15 K, m1 = 0.0855) was 1059 ± 6.3 m/s. The speed of sound (313.15 K, m1 = 0.1024) was 1061 ± 6.3 m/s, the speed of sound (313.15 K, m1 = 0.1402) was 1062.7 ± 6.3 m/s and the speed of sound (313.15 K, m1 = 0.1455) was 1059.1 ± 6.3 m/s. It also gave a speed of sound (313.15 K, m1 = 0.1837) of 1061.4 ± 6.3 m/s, a speed of sound (313.15 K, m1 = 0.2192) of 1064.3 ± 6.3 m/s and a speed of sound (313.15 K, m1 = 0.2422) of 1064.9 ± 6.3 m/s. For the same molecule, the speed of sound (313.15 K, m1 = 0.2889) was 1066.1 ± 6.3 m/s, the speed of sound (313.15 K, m1 = 0.3042) was 1067.2 ± 6.3 m/s and the viscosity (313.15 K, m1 = 0.014) was 0.4545 ± 0.013 mPa·s. It also gave a viscosity (313.15 K, m1 = 0.018) of 0.4559 ± 0.013 mPa·s, a viscosity (313.15 K, m1 = 0.0339) of 0.4632 ± 0.013 mPa·s and a viscosity (313.15 K, m1 = 0.0646) of 0.4698 ± 0.013 mPa·s. The viscosity (313.15 K, m1 = 0.1012) was 0.4881 ± 0.014 mPa·s, the viscosity (313.15 K, m1 = 0.13) was 0.4956 ± 0.014 mPa·s and the viscosity (313.15 K, m1 = 0.1402) was 0.5 ± 0.014 mPa·s. It also gave a viscosity (313.15 K, m1 = 0.17) of 0.5145 ± 0.014 mPa·s, a viscosity (313.15 K, m1 = 0.2003) of 0.5239 ± 0.015 mPa·s and a viscosity (313.15 K, m1 = 0.2422) of 0.5375 ± 0.015 mPa·s. The viscosity (313.15 K, m1 = 0.2453) was 0.5373 ± 0.015 mPa·s, the viscosity (313.15 K, m1 = 0.2889) was 0.5513 ± 0.015 mPa·s and the mass density (313.55 K, m1 = 0.3042) was 792.2 ± 5.5 kg/m3. It also gave a mass density (313.65 K, m1 = 0.1112) of 782 ± 3.1 kg/m3, a mass density (313.95 K, m1 = 0.1455) of 784.03 ± 4.1 kg/m3 and a mass density (313.95 K, m1 = 0.1798) of 786.45 ± 3.6 kg/m3. The mass density (314.05 K, m1 = 0.0059) was 772.92 ± 0.83 kg/m3, the mass density (314.55 K, m1 = 0.1402) was 782.97 ± 4.2 kg/m3 and the mass density (314.6 K, m1 = 0.0646) was 777.82 ± 2 kg/m3. The mass density (314.7 K, m1 = 0.0093) was 772.8 ± 0.91 kg/m3, the mass density (314.8 K, m1 = 0.2003) was 786.04 ± 4.5 kg/m3 and the mass density (314.8 K, m1 = 0.2422) was 788.41 ± 5 kg/m3. It also gave a mass density (314.8 K, m1 = 0.2668) of 789.38 ± 4.3 kg/m3, a mass density (315.1 K, m1 = 0.0339) of 775.12 ± 1.1 kg/m3 and a mass density (315.2 K, m1 = 0.014) of 773.47 ± 1 kg/m3. The mass density (315.4 K, m1 = 0.053) was 775.16 ± 1.2 kg/m3, the mass density (315.45 K, m1 = 0.0855) was 777.19 ± 2.3 kg/m3 and the mass density (316.05 K, m1 = 0.3042) was 789.78 ± 5.4 kg/m3. It also gave a mass density (316.35 K, m1 = 0.0059) of 770.56 ± 0.83 kg/m3, a mass density (316.35 K, m1 = 0.1798) of 784.05 ± 5.2 kg/m3 and a mass density (316.4 K, m1 = 0.1455) of 781.57 ± 5 kg/m3. It also gave a mass density (316.95 K, m1 = 0.0855) of 775.61 ± 2.7 kg/m3, a mass density (316.95 K, m1 = 0.2668) of 787.26 ± 5.2 kg/m3 and a mass density (317 K, m1 = 0.0093) of 770.44 ± 0.56 kg/m3. The mass density (317.25 K, m1 = 0.2003) was 783.64 ± 4.2 kg/m3 and the mass density (318.7 K, m1 = 0.1455) was 779.18 ± 3.2 kg/m3.
